The source made the active and inactive calls. The calls are words filed in the database; no cut-off is given here.
How the values were obtained:
[1] = test system: MDA-MB-231; assay: Downregulation of NFkB p65 protein expression in human MDA-MB-231 cells up to 1 uM after 48 hrs by Western blot analysis; type: functional, cell-based
[2] = test system: MDA-MB-231; assay: Induction of apoptosis in human MDA-MB-231 cells assessed as late apoptotic cells at 1 uM after 24 hrs by Annexin V-FITC/propidium iodide staining based flow cytometry (reference value: 2.97%); type: functional
[3] = Selectivity index, ratio of IC50 for HFF cells to IC50 for human U251 cells; type: toxicity; details: HFF cells versus U251 cells, read-out: Ratio IC50
[4] = test system: MDA-MB-231; assay: Cytotoxicity against human MDA-MB-231 cells assessed as reduction in cell viability after 72 hrs by MTT assay; type: functional, cell-based; details: MDA-MB-231, 72 h
[5] = Selectivity index, ratio of IC50 for HFF cells to IC50 for human SKBR3 cells; type: toxicity; details: HFF cells versus SKBR3 cells, read-out: Ratio IC50
[6] = test system: L02; assay: Cytotoxicity against human HL7702 cells assessed as reduction in cell viability after 72 hrs by MTT assay; type: cell-based; details: L02, 72 h
[7] = Metabolic stability in rat liver microsomes assessed as parent compound remaining after 30 mins in presence of NADPH by HPLC analysis; type: ADME, microsome; details: read-out: Stability
[8] = test system: MDA-MB-231; assay: Induction of apoptosis in human MDA-MB-231 cells assessed as dead cells at 0.1 uM after 24 hrs by Annexin V-FITC/propidium iodide staining based flow cytometry (reference value: 2.15%); type: functional
[9] = Metabolic stability in mouse liver microsomes assessed as parent compound remaining after 90 mins in presence of NADPH by HPLC analysis; type: ADME, microsome; details: read-out: Stability
[10] = Selectivity index, ratio of IC50 for human HL7702 cells to IC50 for human A549 cells; type: toxicity; details: HL7702 cells versus A549 cells, read-out: Ratio IC50
[11] = Selectivity index, ratio of IC50 for HFF cells to IC50 for human SMCC7721 cells; type: toxicity; details: HFF cells versus SMCC7721 cells, read-out: Ratio IC50
[12] = Selectivity index, ratio of IC50 for HFF cells to IC50 for human HCT116 cells; type: toxicity; details: HFF cells versus HCT116 cells, read-out: Ratio IC50
[13] = test system: MCF7; assay: cells; details: Homo sapiens, MCF7, 72 h
Description: Cytotoxicity against human MCF7 cells assessed as reduction in cell viability after 72 hrs by MTT assay

[14] = test system: MDA-MB-231; assay: Induction of apoptosis in human MDA-MB-231 cells assessed as cleaved caspase-3 protein expression up to 1 uM after 48 hrs by Western blot analysis; type: functional, cell-based
[15] = Metabolic stability in rat liver microsomes assessed as parent compound remaining after 150 mins in presence of NADPH by HPLC analysis; type: ADME, microsome; details: read-out: Stability
[16] = Metabolic stability in mouse liver microsomes assessed as parent compound remaining after 120 mins in presence of NADPH by HPLC analysis; type: ADME, microsome; details: read-out: Stability
[17] = Half life in mouse liver microsomes in presence of NADPH by HPLC analysis; type: ADME, microsome
[18] = test system: PC-3; assay: Cytotoxicity against human PC3 cells assessed as reduction in cell viability after 72 hrs by MTT assay; type: functional, cell-based; details: PC-3, 72 h
[19] = Selectivity index, ratio of IC50 for HFF cells to IC50 for human A549 cells; type: toxicity; details: HFF cells versus A549 cells, read-out: Ratio IC50
[20] = Selectivity index, ratio of IC50 for human HL7702 cells to IC50 for human HCT116 cells; type: toxicity; details: HL7702 cells versus HCT116 cells, read-out: Ratio IC50
[21] = Metabolic stability in rat liver microsomes assessed as parent compound remaining after 180 mins in presence of NADPH by HPLC analysis; type: ADME, microsome; details: read-out: Stability
[22] = Metabolic stability in rat liver microsomes assessed as parent compound remaining after 60 mins in presence of NADPH by HPLC analysis; type: ADME, microsome; details: read-out: Stability
[23] = test system: MDA-MB-231; assay: Induction of apoptosis in human MDA-MB-231 cells assessed as downregulation of Bcl2 protein expression after 48 hrs by Western blot analysis; type: functional, cell-based
[24] = Metabolic stability in mouse liver microsomes assessed as parent compound remaining after 150 mins in presence of NADPH by HPLC analysis; type: ADME, microsome; details: read-out: Stability
[25] = Selectivity index, ratio of IC50 for human HL7702 cells to IC50 for human LNCAP cells; type: toxicity; details: HL7702 cells versus LNCAP cells, read-out: Ratio IC50
[26] = Metabolic stability in rat liver microsomes assessed as parent compound remaining after 120 mins in presence of NADPH by HPLC analysis; type: ADME, microsome; details: read-out: Stability
[27] = Metabolic stability in rat liver microsomes assessed as parent compound remaining after 90 mins in presence of NADPH by HPLC analysis; type: ADME, microsome; details: read-out: Stability
[28] = test system: A549; assay: Induction of apoptosis in human A549 cells assessed as genomic DNA fragmentation at 2.5 uM after 24 hrs by DAPI/TUNEL staining based spectrofluorometric method; type: functional, cell-based
[29] = test system: MDA-MB-231; assay: Induction of apoptosis in human MDA-MB-231 cells assessed as late apoptotic cells at 0.1 uM after 24 hrs by Annexin V-FITC/propidium iodide staining based flow cytometry (reference value: 2.97%); type: functional
[30] = test system: A549; assay: Effect on microtubule formation in human A549 cells assessed as morphological changes at 1 to 10 umol after 18 hrs; type: cell-based
[31] = Selectivity index, ratio of IC50 for human HL7702 cells to IC50 for human U251 cells; type: toxicity; details: HL7702 cells versus U251 cells, read-out: Ratio IC50
[32] = test system: MDA-MB-231; assay: Induction of apoptosis in human MDA-MB-231 cells assessed as dead cells at 1 uM after 24 hrs by Annexin V-FITC/propidium iodide staining based flow cytometry (reference value: 2.15%); type: functional
[33] = test system: MDA-MB-231; assay: Induction of apoptosis in human MDA-MB-231 cells assessed as cleaved PARP protein expression up to 1 uM after 48 hrs by Western blot analysis; type: functional, cell-based
[34] = test system: NCI/ADR-RES; assay: Growth inhibition of human MCF7/ADR cells at 2.5 to 5 uM after 72 hrs by MTT assay relative to control; type: functional
[35] = test system: HFF; assay: Cytotoxicity against HFF cells assessed as reduction in cell viability after 72 hrs by MTT assay; type: cell-based; details: Homo sapiens
[36] = test system: A549; assay: Cytotoxicity against human A549 cells assessed as reduction in cell viability after 72 hrs by MTT assay; type: functional, cell-based; details: A549, 72 h
[37] = Metabolic stability in dog liver microsomes assessed as parent compound remaining after 90 mins in presence of NADPH by HPLC analysis; type: ADME, Canis lupus familiaris, microsome; details: read-out: Stability
[38] = test system: HCT-116; assay: Cytotoxicity against human HCT116 cells assessed as reduction in cell viability after 72 hrs by MTT assay; type: functional, cell-based; details: HCT-116, 72 h
[39] = test system: NCI/ADR-RES; assay: Growth inhibition of human MCF7/ADR cells after 72 hrs by MTT assay; type: functional, cell-based
[40] = test system: U-251; assay: Cytotoxicity against human U251 cells assessed as reduction in cell viability after 72 hrs by MTT assay; type: functional, cell-based; details: U-251, 72 h
[41] = test system: MDA-MB-231; assay: Induction of apoptosis in human MDA-MB-231 cells assessed as early apoptotic cells at 1 uM after 24 hrs by Annexin V-FITC/propidium iodide staining based flow cytometry (reference value: 2.33%); type: functional

In the case of `COC(=O)[C@]1(C)CCC[C@]2(C)c3ccc(C(C)C)c(NC(=O)Cn4cc(-c5cccc(NC(=O)OC(C)(C)C)c5)nn4)c3CC[C@@H]12`, the Activity [1] is reported as “Active”, the Activity [2] is reported as 16.75% and the selectivity ratio [3] is reported as 3.1. The IC50 [4] was 700 nM, the selectivity ratio [5] was 5.8 and the IC50 [6] was 7800 nM. The remaining at 0.5 h [7] was 85.4%, the Activity [8] was 7.57% and the remaining at 1.5 h [9] was 61.3%. It also gave a selectivity ratio [10] of 6.1, a selectivity ratio [11] of 5.2 and a selectivity ratio [12] of 5.4. For the same molecule, the IC50 [13] was 800 nM, the Activity [14] was “Active” and the remaining at 2.5 h [15] was 42.1%. The remaining at 2 h [16] was 43.7%, the half-life [17] was 1.76 h and the IC50 [18] was 900 nM. For the same molecule, the selectivity ratio [19] was 4.2, the selectivity ratio [20] was 7.9 and the remaining at 3 h [21] was 31%. The remaining at 1 h [22] was 79.3%, the Activity [23] was “Active” and the remaining at 2.5 h [24] was 25.7%. It also gave a selectivity ratio [25] of 12.4, a remaining at 2 h [26] of 58.4% and a remaining at 1.5 h [27] of 70.5%. For the same molecule, the Activity [28] was “Active”, the Activity [29] was 9.91% and the Activity [30] was “inactive”. The selectivity ratio [31] was 4.5, the Activity [32] was 7.01% and the Activity [33] was “Active”. The “growth inhibition (GI)” value [34] was greater than 50%, the IC50 [35] was 5400 nM and the IC50 [36] was 1300 nM. The remaining at 1.5 h [37] was 31.6%, the IC50 [38] was 1000 nM and the IC50 [39] was 900 nM. The “growth inhibition (GI)” value [39] was “Dose-dependent effect”, the IC50 [40] was 1800 nM and the Activity [41] was 6.13%.

Source: ChEMBL document CHEMBL4130367, “Click chemistry-based synthesis and anticancer activity evaluation of novel C-14 1,2,3-triazole dehydroabietic acid hybrids” (Eur J Med Chem, 2017)
